Columns and labels:
[1] = system: PI3Kα H1047R mutated cell line T-47D; assay: Phospho-AKT (Ser473) Inhibition Assay (HTRF), T-47D; assay type: cell-based; conditions: for IC50: Homo sapiens, T47D, T-47D, 1 hour treatment, read-out: p-AKT Inhibition assay (S473) IC50 T-47D; for Selectivity: SK-BR-3/T-47D (p-AKT): p-AKT (S473) IC50 ratio
In short: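 Cells seeded overnight in insulin-supplemented MEM, then treated 1 h with 11-point 1:3 compound dilutions (10 μM to 0.1 nM final, 0.1% DMSO). Lysates assayed for phospho-AKT Ser473 by HTRF; IC50 from 4-parameter logistic fit, normalised to DMSO (max) and 10 μM GDC0077 (min).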

[2] = molecular target: PI3Kα (p110/p85) kinase (wild type, "WT") (Homo sapiens, UniProt P42336); assay: PI3Kα (p110/p85) kinase ADP-Glo Assay; assay type: biochemical; conditions: 25 uM ATP
Sequence of PI3Kα (p110/p85) kinase (wild type, "WT") (P42336 whole entry): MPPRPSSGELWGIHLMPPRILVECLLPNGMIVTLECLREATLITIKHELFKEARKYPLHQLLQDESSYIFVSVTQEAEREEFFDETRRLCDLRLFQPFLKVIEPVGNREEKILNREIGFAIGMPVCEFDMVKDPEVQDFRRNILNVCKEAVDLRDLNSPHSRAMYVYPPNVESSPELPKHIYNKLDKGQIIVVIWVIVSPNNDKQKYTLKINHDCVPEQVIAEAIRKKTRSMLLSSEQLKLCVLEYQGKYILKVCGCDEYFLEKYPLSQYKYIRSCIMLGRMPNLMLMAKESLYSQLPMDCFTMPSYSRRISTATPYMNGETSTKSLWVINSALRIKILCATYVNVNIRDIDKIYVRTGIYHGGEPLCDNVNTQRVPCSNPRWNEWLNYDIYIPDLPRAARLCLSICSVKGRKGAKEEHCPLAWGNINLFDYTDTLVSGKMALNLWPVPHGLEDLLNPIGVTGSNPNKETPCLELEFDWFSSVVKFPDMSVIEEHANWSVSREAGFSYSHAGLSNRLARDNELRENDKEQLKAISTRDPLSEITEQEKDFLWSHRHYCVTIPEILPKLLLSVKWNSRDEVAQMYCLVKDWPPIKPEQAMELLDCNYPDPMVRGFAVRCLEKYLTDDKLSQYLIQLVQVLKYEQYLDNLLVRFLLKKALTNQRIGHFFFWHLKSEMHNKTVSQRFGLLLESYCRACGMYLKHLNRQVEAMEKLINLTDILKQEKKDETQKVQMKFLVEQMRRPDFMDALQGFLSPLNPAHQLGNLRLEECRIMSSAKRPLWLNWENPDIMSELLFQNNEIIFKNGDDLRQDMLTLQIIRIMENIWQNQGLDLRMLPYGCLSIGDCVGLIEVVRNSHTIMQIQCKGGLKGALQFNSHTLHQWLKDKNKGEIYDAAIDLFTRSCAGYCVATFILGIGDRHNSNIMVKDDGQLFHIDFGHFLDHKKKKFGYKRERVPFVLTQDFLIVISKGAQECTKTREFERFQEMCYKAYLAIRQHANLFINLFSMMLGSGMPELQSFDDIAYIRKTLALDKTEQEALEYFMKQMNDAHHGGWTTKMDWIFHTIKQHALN
Sequence of PI3Kα (p110/p85) kinase (wild type, "WT") (P27986 whole entry partner): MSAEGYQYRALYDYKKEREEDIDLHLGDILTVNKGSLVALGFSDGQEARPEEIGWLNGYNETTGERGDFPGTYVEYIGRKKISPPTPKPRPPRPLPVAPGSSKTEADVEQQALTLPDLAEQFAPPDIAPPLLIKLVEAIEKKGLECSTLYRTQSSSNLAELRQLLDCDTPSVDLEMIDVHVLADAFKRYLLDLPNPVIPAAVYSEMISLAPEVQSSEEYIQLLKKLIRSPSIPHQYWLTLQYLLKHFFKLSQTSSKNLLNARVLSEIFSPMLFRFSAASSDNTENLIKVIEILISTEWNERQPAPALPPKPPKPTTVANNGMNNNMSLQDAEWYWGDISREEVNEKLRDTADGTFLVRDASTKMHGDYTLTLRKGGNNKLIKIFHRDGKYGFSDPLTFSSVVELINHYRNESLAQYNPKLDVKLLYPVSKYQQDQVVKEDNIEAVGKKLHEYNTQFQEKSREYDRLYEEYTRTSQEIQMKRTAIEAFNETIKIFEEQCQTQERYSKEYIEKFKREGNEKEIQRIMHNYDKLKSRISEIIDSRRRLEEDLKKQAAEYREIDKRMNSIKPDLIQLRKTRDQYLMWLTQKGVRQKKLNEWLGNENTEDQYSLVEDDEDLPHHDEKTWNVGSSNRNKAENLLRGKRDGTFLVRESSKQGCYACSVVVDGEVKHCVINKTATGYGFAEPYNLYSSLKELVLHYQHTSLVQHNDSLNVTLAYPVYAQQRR
In short: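 Wild-type PI3Kα p110/p85 preincubated 30 min at RT with PI(4,5)P2:PS substrate ([…]) and compound ([…]) in HEPES pH7.5 buffer with MgCl2, DTT and BSA; reaction started with 25 µM ATP for 120 min at RT. ADP measured by ADP-Glo luminescence; IC50 from four-parameter logistic fit.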

Structure (SMILES) | IC50 [1] | Selectivity: SK-BR-3/T-47D (p-AKT) [1] | IC50 [2]
Cc1cc(C(C)Nc2sc3ccccc3c2C(=O)O)c2cc(-c3ccccc3)n(C)c(=O)c2c1 (stereo not drawn) [Example 92, 2-((1-(2,7-dimethyl-1-oxo-3-phenyl-1,2-dihydroisoquinolin-5-yl)ethyl)amino)benzo[b]thiophene-3-carboxylic acid] | 109 nM | >91 | > 100000 nM
Cc1cc(C(C)Nc2ccccc2C(=O)O)c2cc(-c3cnn(C)c3)n(C)c(=O)c2c1 (stereo not drawn) [Example 91, 2-((1-(2,7-dimethyl-3-(1-methyl-1H-pyrazol-4-yl)-1-oxo-1,2-dihydroisoquinolin-5-yl)ethyl)amino)benzoic acid] | 410 nM | 11.6 | 9820 nM
Cc1cc(C(C)Nc2ccccc2C(=O)O)c2cc(-c3ccc(C#N)cc3)n(C)c(=O)c2c1 (stereo not drawn) [Example 4, 2-((1-(3-(4-cyanophenyl)-2,7-dimethyl-1-oxo-1,2-dihydroisoquinolin-5-yl)ethyl)amino)benzoic acid] | 144 nM | >69 | 3870 nM
